Assay [1] deals with Brassica campestris ssp. Chinensis Makino. Description: Effects of different concentrations of 6-BA sprayed onto flower buds on the embryogenesis rate. It is filed as in vivo. The conditions noted are these: for embryogenesis rate increased by: compared with no 6-BA. How it is done: In this example, a method for improving a one-time seedling rate of microspore embryoids of Brassica campestris ssp. Chinensis Makino included the steps of: • (1) pretreatment of flower bud • a concentration of 100 mg/L of 6-BA was sprayed onto a flower bud of a plant of Brassica campestris ssp. Chinensis Makino at a full-bloom stage after squaring; on the second day after the spraying of 6-BA, an inflorescence, which was specifically a main inflorescence or a healthy inflorescence of a primary branch of a plant without insect pests and cracked buds, was selected, placed in a self-sealing bag and sprayed with clean water, and then stored in a refrigerator at 4° C. for 1 day for later use; • (2) isolation of microspores • a flower bud with a petal length/anther length between 0.5-1 was selected, firstly sterilized with 70% alcohol for 30 s, then sterilized with 0.1% HgCl2 under shaking for 6 min, and then rinsed with sterilized water for 2 times, with each time for 5 min; then, the flower bud was crushed in a B5 medium with a glass rod to release microspores, and the microspores were filtered by a 300-mesh steel-wire mesh screen and a cell mesh screen successively; subsequently, a filtrate was collected into a centrifugal tube and centrifuged under the condition of 1,000 r/min for 3 min; and after the centrifuging, a pellet was resuspended with a B5 medium, and the resuspended solution was centrifuged again under the condition of 1,000 r/min for 3 min to obtain a pellet as the purified microspores desired for the objective; • (3) culture of microspores • the purified microspores were diluted with a NLN medium, and a cell density was adjusted to about 1.5 × 10^5 /mL^-1 (at this time, the medium was pale yellow); subsequently, the diluted purified microspores were subpackaged into culture dishes, and added with phytic acid PA at a concentration of 0.15%; and finally, the microspores were subjected to heat shock treatment at 33° C. for 24 h, then transferred to culture in the dark at 25° C., and placed onto a shaker for shaking culture after embryoids visible to naked eyes appeared; and • (4) germination and seedling of embryoids • the cultured embryoids in a cotyledon stage with a length of 2.8 mm were transferred onto a MS medium for differentiation culture, wherein culture conditions were 4° C., 14 h of illumination by blue-red compound light/day, and 14 days of culture; and then, the culture was continued under a condition of 25° C. and 14 h of illumination by blue-red compound light/day until seedling; wherein the ratio of blue light to red light in the blue-red compound light was 1:1. This example was used for verifying the effects of different concentrations of 6-BA on the embryogenesis rate of Brassica campestris ssp. Chinensis Makino: Method: in the pretreatment process of the flower buds, after squaring of Brassica campestris ssp. Chinensis Makino, at the full flowering stage, 6-BA solutions with concentrations of 0, 50, 100, 150 and 200 mg/L were prepared and sprayed onto the flower buds respectively, so as to study the effects of different concentrations of 6-BA on the embryogenesis rate of Brassica campestris ssp. Chinensis Makino (other steps were the same, and were conducted with reference to Example 3).

In assay [2] the test system is purified microspores of Brassica campestris ssp. Chinensis Makino. The assay is described as follows: Effects of different concentrations of phytic acid PA added in microspore culture on the embryogenesis rate. It is filed as cell-based. How it is done:
In this example, a method for improving a one-time seedling rate of microspore embryoids of Brassica campestris ssp. Chinensis Makino included the steps of: • (1) pretreatment of flower bud • a concentration of 100 mg/L of 6-BA was sprayed onto a flower bud of a plant of Brassica campestris ssp. Chinensis Makino at a full-bloom stage after squaring; on the second day after the spraying of 6-BA, an inflorescence, which was specifically a main inflorescence or a healthy inflorescence of a primary branch of a plant without insect pests and cracked buds, was selected, placed in a self-sealing bag and sprayed with clean water, and then stored in a refrigerator at 4° C. for 1 day for later use; • (2) isolation of microspores • a flower bud with a petal length/anther length between 0.5-1 was selected, firstly sterilized with 70% alcohol for 30 s, then sterilized with 0.1% HgCl2 under shaking for 6 min, and then rinsed with sterilized water for 2 times, with each time for 5 min; then, the flower bud was crushed in a B5 medium with a glass rod to release microspores, and the microspores were filtered by a 300-mesh steel-wire mesh screen and a cell mesh screen successively; subsequently, a filtrate was collected into a centrifugal tube and centrifuged under the condition of 1,000 r/min for 3 min; and after the centrifuging, a pellet was resuspended with a B5 medium, and the resuspended solution was centrifuged again under the condition of 1,000 r/min for 3 min to obtain a pellet as the purified microspores desired for the objective; • (3) culture of microspores • the purified microspores were diluted with a NLN medium, and a cell density was adjusted to about 1.5 × 10^5 /mL^-1 (at this time, the medium was pale yellow); subsequently, the diluted purified microspores were subpackaged into culture dishes, and added with phytic acid PA at a concentration of 0.15%; and finally, the microspores were subjected to heat shock treatment at 33° C. for 24 h, then transferred to culture in the dark at 25° C., and placed onto a shaker for shaking culture after embryoids visible to naked eyes appeared; and • (4) germination and seedling of embryoids • the cultured embryoids in a cotyledon stage with a length of 2.8 mm were transferred onto a MS medium for differentiation culture, wherein culture conditions were 4° C., 14 h of illumination by blue-red compound light/day, and 14 days of culture; and then, the culture was continued under a condition of 25° C. and 14 h of illumination by blue-red compound light/day until seedling; wherein the ratio of blue light to red light in the blue-red compound light was 1:1. This example was used for verifying the effects of different concentrations of phytic acid PA on the embryogenesis rate of Brassica campestris ssp. Chinensis Makino: Method: in the process of microspore culture, the purified microspores subjected to density dilution were subpackaged into culture dishes, and added with phytic acid PA at concentrations of 0, 0.01%, 0.1%, 0.15%, 0.5% and 1% respectively, so as to study the effects of different concentrations of phytic acid PA on the embryogenesis rate of Brassica campestris ssp. Chinensis Makino (other steps were the same, and conducted with reference to Example 3).

The record followed here is US11716944B1, “Method for improving one-time seedling rate of microspore embryoids of brassica campestris SSP. chinensis makino” (Anhui Agricultural University, priority 2021, dated 2023).

As to `c1ccc(CNc2ncnc3[nH]cnc23)cc1` [6-BA], the Average embryogenesis rate in assay [1] (6-BA 50 mg/L sprayed onto flower buds) came to 0.92 embryo/bud; in assay [1] (6-BA 100 mg/L sprayed onto flower buds), 1.56 embryo/bud; in assay [1] (6-BA 150 mg/L sprayed onto flower buds), 1.08 embryo/bud; in assay [1] (6-BA 200 mg/L sprayed onto flower buds), 0.74 embryo/bud. Besides, the “embryogenesis rate increased by” value in assay [1] (6-BA 50 mg/L) stood at 38.46%; in assay [1] (6-BA 100 mg/L), 100%; in assay [1] (6-BA 150 mg/L) it was 17.95%. Also, the “embryogenesis rate decreased by” value in assay [1] (6-BA 200 mg/L, compared with that without application of the 6-BA solution) turned out to be 5.13%.
As for `O=P(O)(O)O[C@H]1[C@H](OP(=O)(O)O)[C@@H](OP(=O)(O)O)[C@H](OP(=O)(O)O)[C@@H](OP(=O)(O)O)[C@H]1OP(=O)(O)O` [PA, Phytic acid], the Average embryogenesis rate in assay [2] (PA 0.01% in medium) was determined as 0.774 embryo/bud; in assay [2] (PA 0.1% in medium), 1.495 embryo/bud; in assay [2] (PA 0.15% in medium) it was 1.137 embryo/bud; in assay [2] (PA 0.5% in medium) it was 0.789 embryo/bud; in assay [2] (PA 1% in medium) it was 0.487 embryo/bud. The “embryogenesis rate increased by” value was 21% in assay [2] (PA 0.01%, compared with the medium without addition of PA); 134% in assay [2] (PA 0.1%, compared with the medium without addition of PA); 78% in assay [2] (PA 0.15%, compared with the medium without addition of PA); 23% in assay [2] (PA 0.5%, compared with the medium without addition of PA). Besides, in assay [2] (PA 1%, compared with the medium without addition of PA), the “embryogenesis rate decreased by” value amounted to 24%.
